Measured values reported in PubChem BioAssay AID1963970 (Molecular Pharmacology Branch, DTP, NCI, 2024).
pIC50: −log10 of the molar value.

System: 931267-113-T-J1-PDC multicell spheroid viability
Experiment: Anticancer human tumor 931267-113-T-J1-PDC patient-derived colon adenocarcinoma cell line growth inhibition [PI3K]
Conditions: for pIC50: curve of first compound; for viability, T/C: stronger effect = lower value
Summary of the method: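 Combination activity was assessed by viability in multicellular tumor spheroids carrying HUVEC and MSC components. Agents were tested with PI3K inhibitors from a Cmax-based top dose (or 10 microM) downward in half-log increments.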

[1] = second compound 0.00316 µM, first compound 0.0316 µM
[2] = second compound 0.00316 µM, first compound 0.1 µM
[3] = second compound 0.00316 µM, first compound 0.316 µM
[4] = second compound 0.00316 µM, first compound 1 µM
[5] = second compound 0.00316 µM, first compound 3.16 µM
[6] = second compound 0.00316 µM, first compound 10 µM
[7] = second compound 0.01 µM, first compound 0.0316 µM
[8] = second compound 0.01 µM, first compound 0.1 µM
[9] = second compound 0.01 µM, first compound 0.316 µM
[10] = second compound 0.01 µM, first compound 1 µM
[11] = second compound 0.01 µM, first compound 3.16 µM
[12] = second compound 0.01 µM, first compound 10 µM
[13] = second compound 0.0316 µM, first compound 0.0316 µM
[14] = second compound 0.0316 µM, first compound 0.1 µM
[15] = second compound 0.0316 µM, first compound 0.316 µM
[16] = second compound 0.0316 µM, first compound 1 µM
[17] = second compound 0.0316 µM, first compound 3.16 µM
[18] = second compound 0.0316 µM, first compound 10 µM
[19] = second compound 0.1 µM, first compound 0.0316 µM
[20] = second compound 0.1 µM, first compound 0.1 µM
[21] = second compound 0.1 µM, first compound 0.316 µM
[22] = second compound 0.1 µM, first compound 1 µM
[23] = second compound 0.1 µM, first compound 3.16 µM
[24] = second compound 0.1 µM, first compound 10 µM
[25] = second compound 0.316 µM, first compound 0.0316 µM
[26] = second compound 0.316 µM, first compound 0.1 µM
[27] = second compound 0.316 µM, first compound 0.316 µM
[28] = second compound 0.316 µM, first compound 1 µM
[29] = second compound 0.316 µM, first compound 3.16 µM
[30] = second compound 0.316 µM, first compound 10 µM
[31] = second compound 1 µM, first compound 0.0316 µM
[32] = second compound 1 µM, first compound 0.1 µM
[33] = second compound 1 µM, first compound 0.316 µM
[34] = second compound 1 µM, first compound 1 µM
[35] = second compound 1 µM, first compound 3.16 µM
[36] = second compound 1 µM, first compound 10 µM
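Note: viability read 7 days after compound addition.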

Cn1ncc(Cl)c1-c1cc(C(=O)NC(CN)Cc2cccc(F)c2)sc1Cl (centres undefined) + COc1c(OCCCN2CCOCC2)ccc2c3n(c(=NC(=O)c4cnc(N)nc4)nc12)CCN3 gave a pIC50 (second compound 0.00316 µM) of 5.23, a pIC50 (second compound 0.01 µM) of 5.24 and a pIC50 (second compound 0.0316 µM) of 5.31. For the same compound, the pIC50 (second compound 0.1 µM) was 5.44, the pIC50 (second compound 0.316 µM) was greater than 7.50 and the pIC50 (second compound 1 µM) was greater than 7.50. The viability, T/C [1] was 95.1%, the viability, T/C [2] was 102% and the viability, T/C [3] was 89.5%. It also gave a viability, T/C [4] of 81.8%, a viability, T/C [5] of 75.9% and a viability, T/C [6] of 30.8%. The viability, T/C [7] was 109%, the viability, T/C [8] was 95.4% and the viability, T/C [9] was 87.4%. For the same compound, the viability, T/C [10] was 76%, the viability, T/C [11] was 69.6% and the viability, T/C [12] was 35.6%. For the same compound, the viability, T/C [13] was 90%, the viability, T/C [14] was 93.2% and the viability, T/C [15] was 82.4%. For the same compound, the viability, T/C [16] was 75.3%, the viability, T/C [17] was 60.2% and the viability, T/C [18] was 34%. For the same compound, the viability, T/C [19] was 71.1%, the viability, T/C [20] was 70.3% and the viability, T/C [21] was 70.1%. The viability, T/C [22] was 60%, the viability, T/C [23] was 54.3% and the viability, T/C [24] was 32.2%. The viability, T/C [25] was 47.9%, the viability, T/C [26] was 50.4% and the viability, T/C [27] was 45.2%. The viability, T/C [28] was 47.3%, the viability, T/C [29] was 47.5% and the viability, T/C [30] was 22.1%. For the same compound, the viability, T/C [31] was 34.7%, the viability, T/C [32] was 35.6% and the viability, T/C [33] was 35.5%. The viability, T/C [34] was 33.9%, the viability, T/C [35] was 34.8% and the viability, T/C [36] was 20%.
Work on C=CC(=O)N1CCN(c2nc(=O)n(-c3c(C)ccnc3C(C)C)c3nc(-c4c(O)cccc4F)c(F)cc23)C(C)C1 (centres undefined) + CC(Nc1ccc2c(c1)OCCn1cc(N3C(=O)OCC3C(F)F)nc1-2)C(N)=O yielded a pIC50 (second compound 0.00316 µM) of less than 5.00, a pIC50 (second compound 0.01 µM) of less than 5.00 and a pIC50 (second compound 0.0316 µM) of less than 5.00. It also gave a pIC50 (second compound 0.1 µM) of less than 5.00, a pIC50 (second compound 0.316 µM) of less than 5.00 and a pIC50 (second compound 1 µM) of less than 5.00. For the same compound, the viability, T/C [1] was 108%, the viability, T/C [2] was 106% and the viability, T/C [3] was 100%. It also gave a viability, T/C [4] of 114%, a viability, T/C [5] of 115% and a viability, T/C [6] of 107%. For the same compound, the viability, T/C [7] was 94.8%, the viability, T/C [8] was 98% and the viability, T/C [9] was 117%. For the same compound, the viability, T/C [10] was 118%, the viability, T/C [11] was 110% and the viability, T/C [12] was 106%. The viability, T/C [13] was 122%, the viability, T/C [14] was 105% and the viability, T/C [15] was 90.4%. For the same compound, the viability, T/C [16] was 109%, the viability, T/C [17] was 114% and the viability, T/C [18] was 106%. It also gave a viability, T/C [19] of 102%, a viability, T/C [20] of 100% and a viability, T/C [21] of 86.7%. For the same compound, the viability, T/C [22] was 102%, the viability, T/C [23] was 98% and the viability, T/C [24] was 97%. For the same compound, the viability, T/C [25] was 91.9%, the viability, T/C [26] was 87.1% and the viability, T/C [27] was 99.8%. The viability, T/C [28] was 88.8%, the viability, T/C [29] was 90.4% and the viability, T/C [30] was 72.2%. It also gave a viability, T/C [31] of 92.9%, a viability, T/C [32] of 74% and a viability, T/C [33] of 79%. The viability, T/C [34] was 80.7%, the viability, T/C [35] was 83.8% and the viability, T/C [36] was 71.4%.
